In experiment [1] the test system is human brain microvascular endothelial cells (HCMEC/D3). Put plainly: MTT assay on human neovascular cells. Format: cell-based. Conditions: Homo sapiens, hCMEC/D3; MTT; read-out: Inhibitory activity (IC50) HCMEC-D3. In general terms: Formazan colour is commonly taken as a measure of viable cells.
Experiment [2] relates to human cerebrovascular pericytes (HBVP). Briefly: MTT assay on human neovascular cells. Format: cell-based. As to conditions: Homo sapiens; MTT; read-out: Inhibitory activity (IC50) HBVP.
In experiment [3] the test system is human normal retinal cells ARPE-19. Put plainly: MTT assay on human retinal cells. Type of experiment: cell-based. Conditions: Homo sapiens, ARPE-19; MTT; read-out: Inhibitory activity (IC50) ARPE-19.
A further experiment addresses IKK β (Homo sapiens (Human), UniProt O14920). Put plainly: Caliper Mobility Shift kinase inhibition test. Format: biochemical. The method, then:
(§1) The method adopted in the test was Caliper Mobility Shift Assay, which was a detection platform based on the mobility detection technology of microfluidic chip technology. Test steps: 1.25× kinase reaction buffer (62.5 mmol/L HEPES, pH 7.5; 0.001875% Brij-35; 12.5 mmol/L MgCl2; 2.5 mM DTT) and kinase reaction stop solution (100 mmol/L HEPES, pH 7.5; 0.015% Brij-35; 0.2% Coating Reagent #3) were configured. […] Collected data was tested on Caliper to yield that inhibition ratio to kinase activity=(max−conversion)/(max−min)×100. “max” was DMSO control without adding compound, and “min” was low control. When IC50 was determined, each sample was provided with 10 dilutions, each with 2 multiple holes, and repeated for 3 times.

The target of the next experiment is FLT3 (Homo sapiens (Human), UniProt P36888). Briefly: Caliper Mobility Shift kinase inhibition test. Format: biochemical. Conditions: 100 nM; for inhibition at 0.1 µM: read-out: inhibitory rate on FLT3. The method, then:
as §1

The target in another experiment is ALK (Homo sapiens (Human), UniProt Q9UM73). Put plainly: Caliper Mobility Shift kinase inhibition test. Type of experiment: biochemical. The method, then:
as §1

In the next experiment the target is ABL1 (Homo sapiens (Human), UniProt P00519). Briefly: Caliper Mobility Shift kinase inhibition test. Type of experiment: biochemical. As to conditions: 100 nM; for inhibition at 0.1 µM: read-out: inhibitory rate on ABL1. How it is done:
(§2) The method adopted in the test was Caliper Mobility Shift Assay, which was a detection platform based on the mobility detection technology of microfluidic chip technology. […] Collected data was tested on Caliper to yield that inhibition ratio to kinase activity=(max−conversion)/(max−min)×100. “max” was DMSO control without adding compound, and “min” was low control. When IC50 was determined, each sample was provided with 10 dilutions, each with 2 multiple holes, and repeated for 3 times.

The target in a further experiment is JAK1 (Homo sapiens (Human), UniProt P23458). Briefly: Caliper Mobility Shift kinase inhibition test. Format: biochemical. How it is done: as §1
JAK1, sequence (P23458 whole entry, species assumed): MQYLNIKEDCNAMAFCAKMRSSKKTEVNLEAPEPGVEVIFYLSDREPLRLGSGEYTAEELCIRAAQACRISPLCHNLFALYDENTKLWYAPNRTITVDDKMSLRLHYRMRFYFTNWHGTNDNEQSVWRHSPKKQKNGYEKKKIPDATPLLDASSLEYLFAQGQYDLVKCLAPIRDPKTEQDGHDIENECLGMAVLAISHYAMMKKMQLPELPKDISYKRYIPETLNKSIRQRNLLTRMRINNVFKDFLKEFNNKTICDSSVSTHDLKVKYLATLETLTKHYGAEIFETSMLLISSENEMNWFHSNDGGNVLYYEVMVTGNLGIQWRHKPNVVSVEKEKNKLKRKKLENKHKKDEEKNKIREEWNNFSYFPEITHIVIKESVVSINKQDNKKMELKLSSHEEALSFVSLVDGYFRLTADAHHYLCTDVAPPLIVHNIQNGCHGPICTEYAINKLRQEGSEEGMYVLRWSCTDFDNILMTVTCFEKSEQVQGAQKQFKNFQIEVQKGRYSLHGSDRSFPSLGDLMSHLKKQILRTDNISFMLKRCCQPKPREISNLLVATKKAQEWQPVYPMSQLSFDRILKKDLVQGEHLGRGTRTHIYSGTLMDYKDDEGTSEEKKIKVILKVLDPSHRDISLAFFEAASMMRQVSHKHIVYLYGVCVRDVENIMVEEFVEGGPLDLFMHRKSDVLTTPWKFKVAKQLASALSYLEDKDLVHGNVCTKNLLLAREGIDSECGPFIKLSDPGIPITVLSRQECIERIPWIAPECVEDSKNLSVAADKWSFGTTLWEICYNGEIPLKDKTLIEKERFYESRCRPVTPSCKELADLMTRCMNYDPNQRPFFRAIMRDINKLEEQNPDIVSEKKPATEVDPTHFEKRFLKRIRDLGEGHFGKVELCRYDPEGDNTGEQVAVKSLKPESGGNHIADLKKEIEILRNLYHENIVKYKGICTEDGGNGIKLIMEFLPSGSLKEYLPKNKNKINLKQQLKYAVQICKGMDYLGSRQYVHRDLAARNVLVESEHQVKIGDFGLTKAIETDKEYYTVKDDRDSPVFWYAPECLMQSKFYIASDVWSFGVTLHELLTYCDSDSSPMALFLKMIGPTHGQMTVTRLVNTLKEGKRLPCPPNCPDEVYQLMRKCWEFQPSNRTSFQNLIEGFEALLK
(§3) According to the above-mentioned method for measuring kinase inhibitory activity, the inhibitory activity of the active compounds on other multiple kinases was measured to characterize the kinase selectivity of active inhibitors.

For a further experiment, the target named is PDGFRβ (Homo sapiens (Human), UniProt P09619). Put plainly: Caliper Mobility Shift kinase inhibition test. Type of experiment: biochemical. Conditions: for inhibition at 0.1 µM / inhibitory rate on PDGFR-β: 100 nM; for inhibition at 0.1 µM: read-out: inhibitory rate on PDGFR-β; for IC50: read-out: IC50 PDGFR-β. How it is done: as §1, §3
The next experiment concerns the target FGFR2 (Homo sapiens (Human), UniProt P21802). Briefly: Caliper Mobility Shift kinase inhibition test. Type of experiment: biochemical. How it is done:
as §1, §3

A further experiment has as its system MG-63 osteosarcoma cells. Put plainly: MTT assay on osteosarcoma cells. Type of experiment: cell-based. As to conditions: Homo sapiens, 48 hours, read-out: Inhibitory activity (IC50) MG-63. How it is done:
(§4) Logarithmic osteosarcoma cells were inoculated into a 96-well plate with a cell concentration of 1,500 cell/well for 6 hours by using MTT assay, and each well was filled with 200 μL of cell suspension. […] The samples were cultured in an incubator for 48 hours (37° C., 5% CO2), and 20 v L of MTT (3-(4,5-dimethylthiazole-2)-2,5-diphenyltetrazole) were added into each hole. After continuous culture for 4 hours, the culture solution was discarded by suction, and 200 v L of DMSO were added to each well. […] Calculation method of IC50 value: the IC50 values of the samples were calculated by curve fitting with GraphPad Prism software.

Another experiment has as its system U2OS osteosarcoma cells. Put plainly: MTT assay on osteosarcoma cells. Format: cell-based. Conditions: Homo sapiens, 48 hours, read-out: Inhibitory activity (IC50) U2OS. How it is done:
as §4

The test system of experiment [4] is MNNG/HOS osteosarcoma cells. Briefly: MTT assay on osteosarcoma cells. Type of experiment: cell-based. As to conditions: 48 hours, read-out: Inhibitory activity (IC50) MNNG/HOS. How it is done:
as §4

Experiment [5] deals with SAOS-2 osteosarcoma cells. Put plainly: MTT assay on osteosarcoma cells. Format: cell-based. As to conditions: Homo sapiens, 48 hours, read-out: Inhibitory activity (IC50) SAOS-2. How it is done:
as §4

A further experiment concerns the target PDGFRα (Homo sapiens (Human), UniProt P16234). Put plainly: Caliper Mobility Shift kinase inhibition test. Format: biochemical. The method, then:
as §2

Values joined by “and” are separate entries in the source; they are usually repeats but may differ in a detail not shown here. Equal entries are not always repeated. Where two headings read alike, the source gives them in different places.

IKK β, sequence (O14920 whole entry, species assumed): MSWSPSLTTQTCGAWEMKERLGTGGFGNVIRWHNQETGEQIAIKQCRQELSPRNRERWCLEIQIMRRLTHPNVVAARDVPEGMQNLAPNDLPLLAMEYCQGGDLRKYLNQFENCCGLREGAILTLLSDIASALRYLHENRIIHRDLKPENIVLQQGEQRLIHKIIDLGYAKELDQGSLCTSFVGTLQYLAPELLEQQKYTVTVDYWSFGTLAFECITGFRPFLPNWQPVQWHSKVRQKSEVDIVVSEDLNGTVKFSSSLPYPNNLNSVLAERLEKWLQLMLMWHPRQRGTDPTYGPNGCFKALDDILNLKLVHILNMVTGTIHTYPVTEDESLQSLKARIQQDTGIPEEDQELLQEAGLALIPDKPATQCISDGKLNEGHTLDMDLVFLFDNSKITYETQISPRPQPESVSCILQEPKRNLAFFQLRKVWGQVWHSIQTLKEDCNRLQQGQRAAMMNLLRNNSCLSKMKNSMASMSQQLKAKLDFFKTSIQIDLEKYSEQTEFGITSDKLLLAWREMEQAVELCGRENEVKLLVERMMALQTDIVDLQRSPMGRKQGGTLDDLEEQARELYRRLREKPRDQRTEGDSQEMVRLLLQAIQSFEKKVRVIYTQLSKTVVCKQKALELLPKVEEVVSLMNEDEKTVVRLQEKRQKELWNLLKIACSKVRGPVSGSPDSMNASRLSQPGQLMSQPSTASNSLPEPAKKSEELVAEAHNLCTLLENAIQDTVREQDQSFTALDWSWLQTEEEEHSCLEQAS
PDGFRα, sequence (P16234 24-1089): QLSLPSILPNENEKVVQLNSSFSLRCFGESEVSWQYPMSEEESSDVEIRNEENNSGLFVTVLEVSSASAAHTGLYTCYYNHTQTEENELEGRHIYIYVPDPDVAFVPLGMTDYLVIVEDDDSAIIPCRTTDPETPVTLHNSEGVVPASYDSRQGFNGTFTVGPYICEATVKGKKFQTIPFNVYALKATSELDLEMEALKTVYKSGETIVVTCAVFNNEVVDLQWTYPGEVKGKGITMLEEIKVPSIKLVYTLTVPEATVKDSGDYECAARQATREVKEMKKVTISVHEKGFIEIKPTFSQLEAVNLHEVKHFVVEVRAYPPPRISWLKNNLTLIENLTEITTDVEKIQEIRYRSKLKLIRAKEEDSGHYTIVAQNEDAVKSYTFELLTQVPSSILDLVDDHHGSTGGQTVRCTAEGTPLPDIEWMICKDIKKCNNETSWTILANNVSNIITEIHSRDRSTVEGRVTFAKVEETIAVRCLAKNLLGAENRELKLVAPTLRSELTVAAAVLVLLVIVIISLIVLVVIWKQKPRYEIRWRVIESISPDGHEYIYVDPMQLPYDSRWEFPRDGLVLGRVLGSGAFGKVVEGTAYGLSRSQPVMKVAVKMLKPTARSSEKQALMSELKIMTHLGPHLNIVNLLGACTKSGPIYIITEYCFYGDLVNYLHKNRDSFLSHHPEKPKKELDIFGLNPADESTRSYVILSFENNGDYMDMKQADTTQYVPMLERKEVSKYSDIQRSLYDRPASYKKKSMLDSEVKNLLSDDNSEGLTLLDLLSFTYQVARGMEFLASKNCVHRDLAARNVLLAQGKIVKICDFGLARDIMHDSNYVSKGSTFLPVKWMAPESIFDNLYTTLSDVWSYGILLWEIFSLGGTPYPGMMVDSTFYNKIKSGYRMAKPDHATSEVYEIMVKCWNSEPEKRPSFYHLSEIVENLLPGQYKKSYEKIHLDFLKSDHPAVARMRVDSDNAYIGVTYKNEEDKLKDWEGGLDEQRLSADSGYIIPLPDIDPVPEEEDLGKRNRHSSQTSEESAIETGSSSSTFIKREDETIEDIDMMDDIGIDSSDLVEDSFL
FGFR2, sequence (P21802 22-821, species assumed): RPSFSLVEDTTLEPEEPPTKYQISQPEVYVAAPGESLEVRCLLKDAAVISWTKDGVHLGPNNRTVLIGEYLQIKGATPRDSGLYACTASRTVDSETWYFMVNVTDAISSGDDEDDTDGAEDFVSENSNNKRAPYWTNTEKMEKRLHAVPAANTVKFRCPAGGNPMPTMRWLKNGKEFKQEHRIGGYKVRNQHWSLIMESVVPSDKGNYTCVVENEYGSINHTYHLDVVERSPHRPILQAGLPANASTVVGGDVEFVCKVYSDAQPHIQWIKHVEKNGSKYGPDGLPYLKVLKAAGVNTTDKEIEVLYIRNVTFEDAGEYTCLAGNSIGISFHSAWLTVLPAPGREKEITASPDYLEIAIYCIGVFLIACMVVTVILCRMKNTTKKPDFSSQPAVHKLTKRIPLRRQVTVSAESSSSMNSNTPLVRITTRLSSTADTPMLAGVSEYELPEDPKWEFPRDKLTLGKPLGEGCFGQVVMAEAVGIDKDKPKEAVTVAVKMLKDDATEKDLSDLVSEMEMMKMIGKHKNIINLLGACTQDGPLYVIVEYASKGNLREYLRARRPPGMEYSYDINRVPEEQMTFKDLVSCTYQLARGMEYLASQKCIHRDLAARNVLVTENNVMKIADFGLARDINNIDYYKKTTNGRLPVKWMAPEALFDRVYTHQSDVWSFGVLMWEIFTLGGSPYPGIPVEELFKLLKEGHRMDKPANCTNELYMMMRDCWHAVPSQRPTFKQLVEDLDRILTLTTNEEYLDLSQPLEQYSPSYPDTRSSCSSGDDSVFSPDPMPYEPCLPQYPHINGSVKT
ABL1, sequence (P00519 whole entry): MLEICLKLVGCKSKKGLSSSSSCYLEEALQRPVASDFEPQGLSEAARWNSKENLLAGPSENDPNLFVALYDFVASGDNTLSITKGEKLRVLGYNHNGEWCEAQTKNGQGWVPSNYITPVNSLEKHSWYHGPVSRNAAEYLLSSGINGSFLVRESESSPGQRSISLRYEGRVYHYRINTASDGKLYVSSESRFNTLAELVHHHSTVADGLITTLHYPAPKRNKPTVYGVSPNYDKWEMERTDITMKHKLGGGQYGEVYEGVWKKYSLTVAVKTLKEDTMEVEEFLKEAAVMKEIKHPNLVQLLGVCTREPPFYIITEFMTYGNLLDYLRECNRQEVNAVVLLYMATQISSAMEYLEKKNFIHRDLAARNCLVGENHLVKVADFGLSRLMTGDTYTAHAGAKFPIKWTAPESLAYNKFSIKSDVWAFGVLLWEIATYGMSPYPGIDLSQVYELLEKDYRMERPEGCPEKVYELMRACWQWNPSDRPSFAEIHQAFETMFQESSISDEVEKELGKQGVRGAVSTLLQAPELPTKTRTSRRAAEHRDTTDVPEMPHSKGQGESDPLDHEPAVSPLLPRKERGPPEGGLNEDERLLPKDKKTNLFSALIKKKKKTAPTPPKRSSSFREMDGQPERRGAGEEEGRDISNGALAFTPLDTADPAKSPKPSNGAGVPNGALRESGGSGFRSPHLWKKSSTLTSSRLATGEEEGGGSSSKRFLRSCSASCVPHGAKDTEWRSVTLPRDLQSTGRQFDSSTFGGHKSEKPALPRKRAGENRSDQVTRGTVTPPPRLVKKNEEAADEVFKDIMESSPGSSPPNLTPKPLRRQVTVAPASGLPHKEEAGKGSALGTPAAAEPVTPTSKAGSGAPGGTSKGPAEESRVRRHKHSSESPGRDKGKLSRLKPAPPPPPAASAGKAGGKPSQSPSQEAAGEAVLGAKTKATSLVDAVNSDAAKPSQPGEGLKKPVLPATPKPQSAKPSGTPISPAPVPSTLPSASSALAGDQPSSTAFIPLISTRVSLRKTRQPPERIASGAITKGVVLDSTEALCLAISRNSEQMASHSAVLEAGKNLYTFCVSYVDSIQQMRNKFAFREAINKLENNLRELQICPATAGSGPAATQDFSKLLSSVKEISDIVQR

As to `CNC(=O)c1cc(Oc2ccc(NC(=O)Nc3ccc(Cl)c(C(F)(F)F)c3)cc2)ccn1` [Sorafenib, reference compound], the IC50 worked out at 6320 ± 730 nM in experiment [1], 9920 ± 598 nM in [2] and 23290 ± 143 nM in experiment [3].

Regarding `COc1cc(Nc2ncc(C)c(Nc3ccc4cn[nH]c4c3)n2)ccc1N1CCN(C)CC1` [Compound 6f, N^4-(1H-indazol-6-yl)-N^2-(3-methoxy-4-(4-methylpiperazine-1-yl)phenyl)-5-methylpyrimidine-2,4-diamine], the IC50 at IKK β was greater than 1000 nM; at ALK, 11 nM; on JAK1, 31 nM; on PDGFRβ, 2.6 nM; at FGFR2, 61 nM; in the experiment with MG-63 osteosarcoma cells it was 841 ± 5 nM. Moreover, the IC50 in the experiment on U2OS osteosarcoma cells came to 756 ± 1 nM; in experiment [4], 1360 ± 19 nM; in experiment [5], 720 ± 25 nM. The inhibition at 0.1 µM on FLT3 was found to be 97.8%; on ABL1 it was 98%; on PDGFRβ it was 97%. Further, the “inhibitory activity on PDGFRβ (in words)” value at PDGFRβ is “significant inhibitory activities”.

Consider `Cc1cnc(Nc2ccc(N3CCC(N4CCN(C)CC4)CC3)cc2)nc1Nc1ccc2cn[nH]c2c1` [Compound 6j, N^4-(1H-indazol-6-yl)-5-methyl-N^2-(4-(4-(4-methylpiperazine-1-y 1)piperidine-1-yl)phenyl)pyrimidine-2,4-diamine], for which the IC50 at IKK β is greater than 1000 nM; at ALK, 23 nM; at JAK1, 14 nM; at PDGFRβ it was 12 nM; on FGFR2 it was 89 nM. The “inhibitory rate on FLT3” value at FLT3 came out at 91.0%. The “inhibitory rate on ABL1” value at ABL1 was 87.6%. For the same compound, on PDGFRβ, the “inhibitory rate on PDGFR-β” value turned out to be 85.4%.

Consider `Cc1ccc(Nc2nccc(N(C)c3ccc4c(C)n(C)nc4c3)n2)cc1S(N)(=O)=O` [Pazopanib, reference compound], for which the inhibition at 0.1 µM at FLT3 is 80.6%; at PDGFRα (read-out: inhibitory rate on PDGFR-α, 100 nM), 96.9%; at PDGFRβ, 76.7%. In addition, the IC50 in the experiment with MG-63 osteosarcoma cells is greater than 100000 nM; in the experiment with U2OS osteosarcoma cells, greater than 100000 nM; in [4], 8520 ± 868 nM; in experiment [5], greater than 100000 nM.

As for `Cc1cnc(Nc2ccc(N3CCS(=O)(=O)CC3)cc2)nc1Nc1ccc2cn[nH]c2c1` [Compound 6d, 4-(4-((4-((1H-indazol-6-yl)amino)-5-methylpyrimidine-2-yl)amino)phenyl)thiomorpholine 1,1-dioxide], the IC50 at IKK β is 619 nM; on ALK, 186 nM; on JAK1 it was 99 nM; on PDGFRβ, 70.3 nM and 39 nM; on FGFR2 it was 117 nM. The results for the inhibition at 0.1 µM at FLT3, on ABL1 and on PDGFRβ were 78.4%, 59.6% and 70.3%, respectively.

On to `Cc1[nH]c(/C=C2\C(=O)Nc3ccc(F)cc32)c(C)c1C(=O)N[C@H]1CCN(C(=O)N(C)C)C1` [Vorolanib, reference compound], for which the results for the IC50 in experiment [1], in experiment [2] and in experiment [3] were 34300 ± 885 nM, 18500 ± 10500 nM and 56200 ± 3230 nM, respectively.

Consider `Cc1cnc(Nc2ccc(N3CCN(C)CC3)cc2)nc1Nc1ccc2cn[nH]c2c1` [Compound 6g, N^4-(1H-indazol-6-yl)-5-methyl-N^2-(4-(4-methylpiperazine-1-yl)phenyl)pyrimidine-2,4-diamine], for which the IC50 at IKK β stood at 595 nM; at ALK, 26 nM; on JAK1, 13 nM; on PDGFRβ it was 8.8 nM; at FGFR2 it was 81 nM. For the same compound, the “inhibitory rate on FLT3” value on FLT3 is listed as 87.6%. Besides, the “inhibitory rate on ABL1” value on ABL1 is recorded as 89.6%. Moreover, on PDGFRβ, the “inhibitory activity on PDGFRβ (in words)” value was “significant inhibitory activities”. In addition, the “inhibitory rate on PDGFR-β” value on PDGFRβ is 93.8%.

As to `CCN1CCN(c2ccc(Nc3ncc(C)c(Nc4ccc5cn[nH]c5c4)n3)c(OC)c2)CC1` [Compound 6h, N^2-(4-(4-ethylpiperazine-1-yl)-2-methoxyphenyl)-N^4-(1H-indazol-6-yl)-5-methylpyrimidine-2,4-diamine], the IC50 at IKK β is greater than 1000 nM; on ALK, 5.8 nM; at JAK1, 320 nM; on PDGFRβ, 40 nM; at FGFR2, greater than 1000 nM. The results for the inhibition at 0.1 µM on FLT3, on ABL1 and at PDGFRβ were 82.6%, 87.5% and 80.2%, respectively.

For the compound `Cc1cnc(Nc2ccc(N3CCC(F)(F)CC3)cc2)nc1Nc1ccc2cn[nH]c2c1` [Compound 6c], the IC50 at IKK β is greater than 1000 nM; on ALK, 476 nM; on JAK1, 72 nM; on PDGFRβ, 103 nM; on FGFR2 it was 540 nM. The “inhibitory rate on FLT3” value on FLT3 is reported as 74.6%. Moreover, at ABL1, the “inhibitory rate on ABL1” value came out at 50.6%. On PDGFRβ, the “inhibitory rate on PDGFR-β” value stood at 48.5%.

As to `Cc1cnc(Nc2ccc(C(=O)NCCN3CCOCC3)cc2)nc1Nc1ccc2cn[nH]c2c1` [Compound 6n], the IC50 worked out at 181 nM at IKK β; 95 nM at ALK; 6 nM at JAK1; 19 nM at PDGFRβ; 102 nM on FGFR2. Further, the “inhibitory rate on FLT3” value at FLT3 was 82.3%. Moreover, the “inhibitory rate on ABL1” value at ABL1 is given as 81.2%. The “inhibitory rate on PDGFR-β” value on PDGFRβ stood at 82.4%.

As to `Cc1cnc(Nc2ccc(N3CCN(C)CC3)cc2)nc1Nc1ccc2cnn(C)c2c1` [Compound 5k, 5-methyl-N^4-(1-methyl-1H-indazol-6-yl)-N^2-(4-(4-methylpiperazine-1-yl)phenyl)pyrimidine-2,4-diamine], the inhibition at 0.1 µM at FLT3 is 88.7%; on ABL1 it was 90.4%; on PDGFRα (100 nM, read-out: inhibitory rate on PDGFR-α) it was 91.1%; at PDGFRβ, 96.4%. The IC50 on PDGFRα (read-out: IC50 PDGFR-α) amounted to 19 nM; at PDGFRβ, 7.3 nM.

`COc1cc(N2CCN(C)CC2)ccc1Nc1ncc(C)c(Nc2ccc3cn[nH]c3c2)n1` [Compound 6e, N^4-(1H-indazol-6-yl)-N^2-(2-methoxy-4-(4-methylpiperazine-1-yl)phenyl)-5-methylpyrimidine-2,4-diamine]: the IC50 is greater than 1000 nM at IKK β; 7 nM at ALK; 199 nM on JAK1; 72 nM at PDGFRβ; greater than 1000 nM on FGFR2. For the same compound, the inhibition at 0.1 µM at FLT3 came out at 79.5%; on ABL1 it was 78.8%; on PDGFRβ it was 63.4%.
